Assay: in vitro absorption of foam/gas in fresh human venous blood
Assay type: in vitro ADME
Details: 0.5 ml aliquot in 20 ml stirred blood
Description: In vitro experiments were conducted to determine the absorption of foam made with different gases in fresh human venous blood.
A 20 ml polypropylene syringe barrel was prepared by puncturing its side wall with a relatively large hypodermic needle to make a hole approximately 1 mm in diameter. This hole was then covered by securing a piece of clear flexible vinyl sheet over it with clear adhesive tape. A small magnetic stirrer element was introduced into the syringe barrel and the plunger then replaced. 20 ml of human venous blood was then with withdrawn in the usual manner from a human subject using the specially prepared syringe fitted with a hypodermic needle.
The hypodermic needle was removed and the syringe then placed on a magnetic stirrer unit so that the magnetic element in the syringe thoroughly agitated the blood. […]
The needle of the 0.5 ml syringe was then introduced through the vinyl sheet on the side wall of the 20 ml syringe. […] It was determined that a distance of 45 intervals on this scale corresponded to an internal volume of in the manometer tubing of approximately 0.5 ml. […]
In this experiment, the air foam test was only observed for a few minutes after tF. However, further experiments have been conducted by the inventors, the results of which are not formally recorded here, involving foam with a percentage of nitrogen. […]

SMILES: O=O [Oxygen gas, oxygen]
- Absorbed volume at tF: 0.46 mL
- tF (time until blood column stopped moving): 140 s

— US7763269B2, “Therapeutic foam” (BTG International Ltd., priority 2003, dated 2010)
